# Measurements as given in patent publication US4673684A, “Amide derivatives and 5-lipoxygenase inhibitors containing the same as an active ingredient” (Terumo Corporation, priority 1984, dated 1987).
# Molecular target: T1, 5-lipoxygenase (Mus musculus, UniProt P48999)
# T1 construct: The supernatant is used as a 5-lipogenase enzyme solution; endogenous in cells
# T1 sequence (P48999 1-674): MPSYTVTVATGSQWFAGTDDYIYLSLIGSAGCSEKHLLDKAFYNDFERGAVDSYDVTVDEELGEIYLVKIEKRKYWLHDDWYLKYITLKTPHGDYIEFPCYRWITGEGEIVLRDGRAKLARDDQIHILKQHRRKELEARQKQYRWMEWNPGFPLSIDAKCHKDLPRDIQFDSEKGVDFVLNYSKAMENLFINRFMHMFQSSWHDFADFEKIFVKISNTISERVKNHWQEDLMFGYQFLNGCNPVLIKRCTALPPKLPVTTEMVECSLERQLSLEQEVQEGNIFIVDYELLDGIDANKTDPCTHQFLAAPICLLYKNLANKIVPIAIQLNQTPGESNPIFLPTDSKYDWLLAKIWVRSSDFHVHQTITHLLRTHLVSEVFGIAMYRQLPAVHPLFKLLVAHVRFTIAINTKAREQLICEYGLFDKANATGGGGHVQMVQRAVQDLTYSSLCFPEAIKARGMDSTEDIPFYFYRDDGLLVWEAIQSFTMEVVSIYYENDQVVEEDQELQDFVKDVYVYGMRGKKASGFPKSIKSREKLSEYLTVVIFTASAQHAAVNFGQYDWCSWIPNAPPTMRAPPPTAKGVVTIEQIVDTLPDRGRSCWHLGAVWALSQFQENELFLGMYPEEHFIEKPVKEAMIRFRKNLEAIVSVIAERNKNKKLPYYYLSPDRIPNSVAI
# Experiment: 5-Lipoxygenase-inhibiting Activity (decrease in 5-HETE and LTB4 formed from radiolabelled arachidonic acid, enzyme solution from mouse mastcytoma cells P-815)
# Format: biochemical
# Conditions: not given
# Description: Mouse mastcytoma cells P-815 are diluted in a culture solution, containing 90% Eagle Basic Medium (manufactured by Gibco Laboratories) to 5×10^4 cells/ml. The diluted solution is cultivated with shaking in air at 37° C. for 48 hours. Then, the culture solution is cooled with ice and centrifuged to collect the cells. The cells are suspended in a phosphate buffer solution at pH 7.4 at a concentration of 2×10^7 cells/ml. The suspension is treated in a ultrasonic cell disintegrater and then centrifuged at 10,000 r.p.m. for 10 min. The supernatant is used as a 5-lipogenase enzyme solution. In test tubes are placed 20 μl of radiolabelled arachidonic acid ([…]), indomethacin (2×10^-8 mol) and an amide derivative to be tested, respectively. To each of the test tubes are added 0.45 ml of a phosphate buffer solution, 0.45 ml of the above-prepared suspension, 0.45 ml of the above-prepared enzyme solution and 0.1 ml of 8 mM CaCl2 (calcium chloride). The mixture is reacted at 37° C. for 5 min. After cooled with ice, 60 μl of 1N-HCl (hydrochloric acid is added to the reaction mixture, which is then extracted with 8 ml of ethyl acetate. The extract is concentrated, and the concentrate is developed by spotting on a silica gel thin layer plate (Merck 60F 254). Measurement of the inhibitory activity is made by collecting fractions corresponding to lipoxygenase products 5-HETE (5(s)-hydroxy-6,8,11,14-eicosatetraenic acid) and LTB4 (leucotriene B4) and determining the radioactivity by a liquid scintillation counter. The lipoxygenase inhibiting activity is determined by decrease in the amount of the above-mentioned 5-lipoxygenaseproducts. […] 50% inhibitory concentration or 30% inhibitory concentration as indicated in the table means the concentration of an amide derivative required for reducing the amount of the above-mentioned 5-lipoxygenase products (5-HETE and LTB4) to 50% or 30% of the amount when the amount of 5-HETE and LTB4 produced in the absenced of the amide derivative is 100%.
row,Compound,IC50
1,"COc1ccc(/C=C/C(=O)N2CCN(CCOC(c3ccccc3)c3ccccc3)CC2)cc1OC [Example 76, N-[3-(3,4-dimethoxyphenyl) -2-propenoyl]-N'-(2-benzhydroxyethyl)piperazine]",20000 nM
2,"COc1cc(/C=C/C(=O)N2CCN(CCOC(c3ccccc3)c3ccccc3)CC2)cc(OC)c1O [Example 79, N-[3-(3,5-dimethoxy-4-hydroxyphenyl) -2-propenoyl]-N'-(2-benzhydroxyethyl)piperazine]",40 nM
3,"O=C(/C=C/C=C/c1ccc(O)c(O)c1)N1CCN(CCOC(c2ccccc2)c2ccccc2)CC1 [Example 84, N-[5-(3,4-dihydroxyphenyl)-2,4-pentadienoyl]--N'-(2-benzhydroxyethyl)piperazine]",30 nM
4,"COc1cc(/C=C/C=C/C(=O)N2CCN(CCOC(c3ccccc3)c3ccccc3)CC2)ccc1O [Example 89, N-[5-(3-methoxy-4-hydroxyphenyl)-2,4-pentadienoyl]-N'-(2-benzhydroxyethyl)piperazine]",60 nM
5,"COc1cc(/C=C/C=C/C(=O)N2CCN(CCOC(c3ccccc3)c3ccccc3)CC2)cc(OC)c1O [Example 98, N-[5-(3,5-dimethoxy-4-hydroxyphenyl)-2,4-pentadienoyl)-N'-(2-benzhydroxyethyl)piperazine]",9 nM

# Same assay, conditions: 5-HETE and LTB4 formation; mouse mastcytoma P-815 enzyme solution; 37° C., 5 min; pH 7.4; with indomethacin; read-out: 50% Inhibitory concentration IC50
row,Compound,IC50
1,"COc1cc(/C=C/C(=O)NCCOC(c2ccccc2)c2ccccc2)ccc1O [Example 72, 2-[3-(3-methoxy-4-hydroxy)phenyl-2-propenoyl]aminoethyl benzhydryl ether]",900 nM
2,"COc1cc(/C=C/C(=O)NCCCOC(c2ccccc2)c2ccccc2)ccc1O [Example 73, 3-[3-[3-methoxy-4-hydroxyphenyl)-2-propenoyl]aminopropyl benzhydryl ether]",700 nM
3,"COc1ccc(/C=C/C(=O)NCCCCN2CCN(C(c3ccccc3)c3ccccc3)CC2)cc1OC [Example 74, N-[4-[3-(3,4-dimethoxyphenyl)-2-propenoyl]aminobutyl]-N'-benzhydrylpiperazine]",8000 nM
4,"COc1ccc(/C=C/C(=O)NCCn2cnc3c2c(=O)n(C)c(=O)n3C)cc1OC [Example 75, 7-[2-[3-(3,4-dimethoxyphenyl) -2-porpenoyl]aminoethyl]theophylline]",20000 nM
5,"COc1ccc(/C=C/C(=O)NCCOC(c2ccccc2)c2ccccc2)cc1OC [Example 77, 2-[3-(3,4-dimethoxyphenyl)-2-propenoyl]aminoethyl benzhydryl ether]",10000 nM
6,"COc1cc(/C=C/C(=O)NCCCCN2CCN(C(c3ccccc3)c3ccccc3)CC2)cc(OC)c1O [Example 78, N-benzyhdryl-N'-3-(3,5-dimethoxy-4-hydroxy)phenyl-2-propenoylaminobutylpiperazine]",30 nM
7,"COc1cc(/C=C/C(=O)N2CCN(CCCOC(c3ccccc3)c3ccccc3)CC2)cc(OC)c1O [Example 80, N-[3-(3,5-dimethoxy-4-hydroxyphenyl) 2-propenoyl]-N'-(3-benzhydroxypropyl)piperazine]",30 nM
8,"COc1cc(/C=C/C(=O)NCCOC(c2ccccc2)c2ccccc2)cc(OC)c1O [Example 81, 2-[3-(3,5-dimethoxy-4-hydroxy]phenyl-2-propenoyl) aminoethyl benzhydryl ether]",50 nM
9,"O=C(/C=C/C=C/c1ccc(O)c(O)c1)NCCCCN1CCN(C(c2ccccc2)c2ccc(Cl)cc2)CC1 (centres unmarked) [Example 82, N-(p-chlorobenzhydryl)-N'-[4-[5-(3,4-dihydreoxyphenyl) -2,4-pentadienoyl]aminobutyl]piperazine]",20 nM
10,"O=C(/C=C/C=C/c1ccc(O)c(O)c1)NCCCCN1CCN(C(c2ccccc2)c2ccccc2)CC1 [Example 83, N-benzhydryl-N'-5-(3,4-dihydroxyphenyl)-2,4-pentadienoylaminobutylpiperazine]",40 nM
11,"O=C(/C=C/C=C/c1ccc(O)c(O)c1)N1CCN(CCCOC(c2ccccc2)c2ccccc2)CC1 [Example 85, N-[5,[3,4-hydroxyphenyl]-2,4-pentadienoyl]-N'-(3-benzhydroxypropyl)piperazine]",30 nM
12,COc1cc(/C=C/C=C/C(=O)NCCCCN2CCN(C(c3ccccc3)c3ccc(Cl)cc3)CC2)ccc1O (centres unmarked) [Example 86],40 nM
13,"COc1cc(/C=C/C=C/C(=O)NCCCCN2CCN(C(c3ccccc3)c3ccccc3)CC2)ccc1O [Example 87, N-benzhydryl-N'-[4-[5-(3-methoxy-4-hydroxyphenyl)-2,4-pentadienoyl]aminobutyl]piperzine]",60 nM
14,COc1cc(/C=C/C=C/C(=O)NCCn2cnc3c2c(=O)n(C)c(=O)n3C)ccc1O [Example 88],4000 nM
15,"COc1cc(/C=C/C=C/C(=O)N2CCN(CCCOC(c3ccccc3)c3ccccc3)CC2)ccc1O [Example 90, N-[5-(3-methoxy-4-hydroxyphenyl)-2,4-pentadienoyl]-N'-(3-benzhydroxypropyl)piperazine]",60 nM
16,"COc1cc(/C=C/C=C/C(=O)NCCOC(c2ccccc2)c2ccccc2)ccc1O [Example 91, 2-[5-(3-methoxy-4-hydroxy)phenyl-2,4-pentadienoyl]aminoethyl benzhydryl ether]",60 nM
17,"COc1cc(/C=C/C=C/C(=O)NCCCOC(c2ccccc2)c2ccccc2)ccc1O [Example 92, 3-[5-[3-methoxy-4-hydroxyphenyl)-2,4-pentadienoyl]aminopropyl benzhydryl ether]",90 nM
18,COc1ccc(/C=C/C=C/C(=O)NCCCCN2CCN(C(c3ccccc3)c3ccccc3)CC2)cc1OC [Example 93],3000 nM
19,"COc1ccc(/C=C/C=C/C(=O)N2CCN(CCCOC(c3ccccc3)c3ccccc3)CC2)cc1OC [Example 94, N-[5-(3,4-dimethoxyphenyl)-2,4-pentadienoyl]-N'-(3-benzhydroxypropyl)piperazine]",4000 nM
20,COc1cc(/C=C/C=C/C(=O)NCCn2cnc3c2c(=O)n(C)c(=O)n3C)cc(OC)c1OC [Example 95],9000 nM
21,"COc1cc(/C=C/C=C/C(=O)NCCCCN2CCN(C(c3ccccc3)c3ccc(Cl)cc3)CC2)cc(OC)c1O (centres unmarked) [Example 96, N-p-chlorobenzhydryl-N'-5-(3,5-dimethoxy-4-hydroxy)phenyl-2,4-pentadienlylaminobutylpiperazine]",20 nM
22,"COc1cc(/C=C/C=C/C(=O)NCCCCN2CCN(C(c3ccccc3)c3ccccc3)CC2)cc(OC)c1O [Example 97, N-benzhydryl-N'-[4-[5-(3,5-dimethoxy-4-hydroxy)phenyl-2,4-pentadienoyl]aminobutyl]]",40 nM
23,COc1cc(/C=C/C=C/C(=O)N2CCN(CCCOC(c3ccccc3)c3ccccc3)CC2)cc(OC)c1O [Example 99],30 nM
24,"COc1cc(/C=C/C=C/C(=O)NCCOC(c2ccccc2)c2ccccc2)cc(OC)c1O [Example 100, 2-[5-(3,5-dimethoxy-4-hydroxy)phenyl-2,4-pentadienoyl]aminoethyl benzhydryl ether]",10 nM
25,"CC(OCCCN1CCN(C(=O)/C=C/c2ccc(O)c(O)c2)CC1)(c1ccccc1)c1ccc(Cl)cc1 (centres unmarked) [Example 101, N-[3-(3,4-dihydroxyphenyl)-2-propenoyl]-N'-[3-[1-phenyl-1-(p-chlorophenyl)ethoxy]propyl]piperazine]",10 nM
26,"COc1cc(/C=C/C(=O)N2CCN(CCOC(C)(c3ccccc3)c3ccc(Cl)cc3)CC2)ccc1O (centres unmarked) [Example 102, N-[3-[3-methoxy-4-hydroxyphenyl)-2-propenoyl]-N'-[2-[1-phenyl-1-(p-chlorophenyl)ethoxy]ethyl]piperazine]",200 nM
27,"COc1cc(/C=C/C(=O)N2CCN(CCn3cnc4c3c(=O)n(C)c(=O)n4C)CC2)ccc1O [Example 103, 7-[2-[4-[3(3-methoxy-4-hydroxyphenyl)-2-propenoyl]piperazin-1-yl]-ethyl]theophilline]",30000 nM
